# From patent US8530648B2, “Diaza-spiro[5.5]undecanes” (Novartis AG, priority 2009, dated 2013)
# How the values were obtained:
# hOx1R = hOx1R (Homo sapiens (Human), UniProt O43613); assay: Calcium accumulation in cells (FLIPR), hOx1R; format: cell-based; details: for inhibition at 10 µM: measured at a concentration of 10 μM of compound; for Ki: inhibition of orexin A induced calcium accumulation, Cheng and Prusoff correction
# Description: (§1) Calcium Accumulation in Cells (FLIPR):
# (§2) Cells expressing human orexin 1 or human orexin 2 receptors, were seeded at 8,000 cells/well in 384 well black-walled clear bottom, poly-D-lysine coated plates. After 24 h, the medium was removed and cells were washed once with phosphate buffered saline and serum-deprived overnight in assay buffer (130 mM NaCl, 5.4 mM KCl, 1.8 mM CaCl2, 0.8 mM MgSO4, 0.9 mM NaH2PO4, 25 mM glucose, 20 mM HEPES, pH 7.4) containing bovine serum albumin (1% w/v).
# (§3) On the day of the experiment, the cells seeded in black plates were treated with assay buffer containing the Ca^2+ sensitive fluorescent dye Fluo-4-AM (2 μM), and probenecid (0.1 mM). After 1 h plates were washed twice with, and resuspended in, assay buffer containing probenecid (0.1 mM) using a multi plate washer. […] Fluorescence measurements were then continued every 1 S for 120 S followed by every 4 S for 240 S.
# (§4) The measurements were typically made in two sequences:
# (§5) Compounds of formula I were tested usually in a concentration range from 10^−9 M to 10^−5 M.
# (§6) In the second round, performed one hour later (to allow for equilibration), Orexin A was tested either in the absence (calibration curves, Orexin A agonist controls) or in the presence of compounds of formula I to determine antagonism.
# hOx2R = hOx2R (Homo sapiens (Human), UniProt O43614); assay: Calcium accumulation in cells (FLIPR), hOx2R; format: cell-based; details: for inhibition at 10 µM: measured at a concentration of 10 μM of compound; for Ki: inhibition of orexin A induced calcium accumulation, Cheng and Prusoff correction
# Description: as §1, §2, §3, §4, §5, §6
# Sequence of hOx1R (O43613 whole entry): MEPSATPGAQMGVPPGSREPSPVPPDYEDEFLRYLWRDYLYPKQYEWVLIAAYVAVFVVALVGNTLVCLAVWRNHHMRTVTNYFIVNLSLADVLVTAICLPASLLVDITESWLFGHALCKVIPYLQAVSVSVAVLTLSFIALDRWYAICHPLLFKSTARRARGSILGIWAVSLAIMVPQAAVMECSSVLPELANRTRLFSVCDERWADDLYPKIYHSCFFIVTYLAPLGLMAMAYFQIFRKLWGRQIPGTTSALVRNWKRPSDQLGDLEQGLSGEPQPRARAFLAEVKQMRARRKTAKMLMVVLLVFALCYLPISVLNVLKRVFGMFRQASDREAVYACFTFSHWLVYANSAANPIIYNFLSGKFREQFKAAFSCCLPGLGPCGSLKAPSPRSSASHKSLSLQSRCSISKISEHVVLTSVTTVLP
# Sequence of hOx2R (O43614 whole entry): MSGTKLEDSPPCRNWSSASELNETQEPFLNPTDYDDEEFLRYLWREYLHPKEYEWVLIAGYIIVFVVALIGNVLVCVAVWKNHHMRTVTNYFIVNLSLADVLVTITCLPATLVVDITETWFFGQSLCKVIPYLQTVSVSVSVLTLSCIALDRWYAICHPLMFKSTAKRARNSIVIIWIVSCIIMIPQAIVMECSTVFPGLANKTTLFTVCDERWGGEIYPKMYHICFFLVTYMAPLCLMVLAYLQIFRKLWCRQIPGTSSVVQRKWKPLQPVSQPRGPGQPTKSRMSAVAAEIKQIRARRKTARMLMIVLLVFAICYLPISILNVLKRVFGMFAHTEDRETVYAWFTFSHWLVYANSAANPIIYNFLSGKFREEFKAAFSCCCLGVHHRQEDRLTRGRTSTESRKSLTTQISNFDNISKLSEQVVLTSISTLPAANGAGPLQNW
inhibition at 10 µM (hOx1R),inhibition at 10 µM (hOx2R),Ki (hOx1R),Ki (hOx2R),SMILES
11%,25%,,,"Cc1cc(CN2CCCC3(CCN(c4cnc5ccccc5n4)CC3)C2=O)no1 [Example 88, 2-((5-methylisoxazol-3-yl)methyl)-9-(quinoxalin-2-yl)-2,9-diazaspiro[5.5]undecan-1-one]"
19%,43%,,,"COc1cc(CN2CCCC3(CCN(c4cnc5ccccc5n4)CC3)C2=O)ccn1 [Example 45, 2-((2-methoxypyridin-4-yl)methyl)-9-(quinoxalin-2-yl)-2,9-diazaspiro[5.5]undecan-1-one]"
22%,35%,,,"Cc1ccc2nc(N3CCC4(CCCN(Cc5c[nH]c6ccccc56)C4=O)CC3)sc2c1 [Example 153, 2-((1H-indol-3-yl)methyl)-9-(6-methylbenzo[d]thiazol-2-yl)-2,9-diazaspiro[5.5]undecan-1-one]"
,,1700 nM,282 nM,"N#Cc1cc(CN2CCCC3(CCN(c4cnc5ccccc5n4)CC3)C2=O)ccc1F [Example 94, 2-fluoro-5-((1-oxo-9-(quinoxalin-2-yl)-2,9-diazaspiro[5.5]undecan-2-yl)methyl)benzonitrile]"
,,509 nM,656 nM,"O=C1CCCC2(CCN(c3nnc(-c4ccccc4)o3)CC2)N1Cc1cccc2[nH]ccc12 [Example 137, 1-((1H-indol-4-yl)methyl)-9-(5-phenyl-1,3,4-oxadiazol-2-yl)-1,9-diazaspiro[5.5]undecan-2-one]"
,,591 nM,197 nM,"O=C1N(Cc2noc3ccccc23)CCCC12CCN(c1cnc3ccccc3n1)CC2 [Example 36, 2-(benzo[d]isoxazol-3-ylmethyl)-9-(quinoxalin-2-yl)-2,9-diazaspiro[5.5]undecan-1-one]"
26%,,,272 nM,"O=C1N(Cc2cccc(-n3cccc3)c2)CCCC12CCN(c1cnc3ccccc3n1)CC2 [Example 35, 2-(3-(1H-pyrrol-1-yl)benzyl)-9-(quinoxalin-2-yl)-2,9-diazaspiro[5.5]undecan-1-one]"
,,2490 nM,1190 nM,"O=C1N(Cc2cccc(N3CCCC3)n2)CCCC12CCN(c1cnc3ccccc3n1)CC2 [Example 103, 2-((6-(pyrrolidln-1-yl)pyridin-2-yl)methyl)-9-(quinoxalin-2-yl)-2,9-diazaspiro[5.5]undecan-1-one]"
,,925 nM,212 nM,"Cn1nc(CN2CCCC3(CCN(c4cnc5ccccc5n4)CC3)C2=O)c2ccccc21 [Example 142, 2-((1-methyl-1H-indazol-3-yl)methyl)-9-(quinoxalin-2-yl)-2,9-diazaspiro[5.5]undecan-1-one]"
29%,,,621 nM,"O=C1N(Cc2c[nH]c3ccccc23)CCCC12CCN(c1cnc3nccnc3c1)CC2 [Example 146, 2-((1H-indol-3-yl)methyl)-9-(pyrido[3,2-b]pyrazin-7-yl)-2,9-diazaspiro[5.5]undecan-1-one]"
,,3100 nM,452 nM,"O=C1N(Cc2ccnc(Br)c2)CCCC12CCN(c1cnc3ccccc3n1)CC2 [Example 72, 2-((2-bromopyridin-4-yl)methyl)-9-(quinoxalin-2-yl)-2,9-diazaspiro[5.5]undecan-1-one]"
,,4210 nM,945 nM,"O=C1N(Cc2cncn2-c2ccccc2)CCCC12CCN(c1cnc3ccccc3n1)CC2 [Example 110, 2-((1-phenyl-1H-imidazol-5-yl)methyl)-9-(quinoxalin-2-yl)-2,9-diazaspiro[5.5]undecan-1-one]"
17%,33%,,,"Cn1c(CN2CCCC3(CCN(c4cnc5ccccc5n4)CC3)C2=O)nc2ccccc21 [Example 30, 2-((1-methyl-1H-benzo[d]imidazol-2-yl)methyl)-9-(quinoxalin-2-yl)-2,9-diazaspiro[5.5]undecan-1-one]"
,,570 nM,217 nM,"O=C1N(Cc2cccc(-c3ccncc3)c2)CCCC12CCN(c1cnc3ccccc3n1)CC2 [Example 58, 2-(3-(pyridin-4-yl)benzyl)-9-(quinoxalin-2-yl)-2,9-diazaspiro[5.5]undecan-1-one]"
,,2400 nM,631 nM,"O=C1N(Cc2cc(=O)[nH]c3ccccc23)CCCC12CCN(c1cnc3ccccc3n1)CC2 [Example 96, 4-((1-oxo-9-(quinoxalin-2-yl)-2,9-diazaspiro[5.5]undecan-2-yl)methyl)quinolin-2(1H)-one]"
57%,32%,,,"Cn1cc(-c2ccccc2CN2CCCC3(CCN(c4cnc5ccccc5n4)CC3)C2=O)cn1 [Example 51, 2-(2-(1-methyl-1H-pyrazol-4-yl)benzyl)-9-(quinoxalin-2-yl)-2,9-diazaspiro[5.5]undecan-1-one]"

inhibition at 10 µM (hOx1R),inhibition at 10 µM (hOx2R),Ki (hOx1R),Ki (hOx2R),SMILES
,,1020 nM,98 nM,"O=C1N(Cc2c[nH]c3ccccc23)CCCC12CCN(c1nc3ccccc3o1)CC2 [Example 40, 2-((1H-indol-3-yl)methyl)-9-(benzo[d]oxazol-2-yl)-2,9-diazaspiro[5.5]undecan-1-one]"
,,1710 nM,302 nM,"O=C1N(Cn2nnc3ccccc32)CCCC12CCN(c1cnc3ccccc3n1)CC2 [Example 66, 2-((1H-benzo[d][1,2,3]triazol-1-yl)methyl)-9-(quinoxalin-2-yl)-2,9-diazaspiro[5.5]undecan-1-one]"
,,728 nM,115 nM,"Cn1ncc2cccc(CN3CCCC4(CCN(c5cnc6ccccc6n5)CC4)C3=O)c21 [Example 107, 2-((1-methyl-1H-indazol-7-yl)methyl)-9-(quinoxalin-2-yl)-2,9-diazaspiro[5.5]undecan-1-one]"
,,3790 nM,831 nM,"Cc1oc(-c2cscn2)nc1CN1CCCC2(CCN(c3cnc4ccccc4n3)CC2)C1=O [Example 114, 2-((5-methyl-2-(thiazol-4-yl)oxazol-4-yl)methyl)-9-(quinoxalin-2-yl)-2,9-diazaspiro[5.5]undecan-1-one]"
21%,,,545 nM,"O=C1N(Cc2c[nH]c3ccccc23)CCCC12CCN(c1cc(-n3ccnc3)ncn1)CC2 [Example 158, 9-(6-(1H-imidazo-1-yl)pyrimidin-4-yl)-2-((1H-indol-3-yl)methyl)-2,9-diazaspiro[5.5]undecan-1-one]"
,,3420 nM,258 nM,"O=C1N(Cc2cnc3ccccn23)CCCC12CCN(c1cnc3ccccc3n1)CC2 [Example 70, 2-(imidazo[1,2-a]pyridin-3-ylmethyl)-9-(quinoxalin-2-yl)-2,9-diazaspiro[5.5]undecan-1-one]"
< 10%,12%,,,"Cc1nn(-c2ccccc2)nc1CN1CCCC2(CCN(c3cnc4ccccc4n3)CC2)C1=O [Example 175, 2-((5-methyl-2-phenyl-2H-1,2,3-triazol-4-yl)methyl)-9-(quinoxalin-2-yl)-2,9-diazaspiro[5.5]undecan-1-one]"
12%,31%,,,"O=C1N(Cc2cccc(N3CCOCC3)c2)CCCC12CCN(c1cnc3ccccc3n1)CC2 [Example 59, 2-(3-morpholinobenzyl)-9-(quinoxalin-2-yl)-2,9-diazaspiro[5.5]undecan-1-one]"
47%,,,372 nM,"O=C1N(Cc2nccn2Cc2ccccc2)CCCC12CCN(c1cnc3ccccc3n1)CC2 [Example 86, 2-((1-benzyl-1H-imidazol-2-yl)methyl)-9-(quinoxalin-2-yl)-2,9-diazaspiro[5.5]undecan-1-one]"
29%,,,833 nM,"O=C1N(Cc2ccccn2)CCCC12CCN(c1cnc3ccccc3n1)CC2 [Example 62, 2-(pyridin-2-ylmethyl)-9-(quinoxalin-2-yl)-2,9-diazaspiro[5.5]undecan-1-one]"
8%,22%,,,"Cc1noc(C)c1CN1CCCC2(CCN(c3cnc4ccccc4n3)CC2)C1=O [Example 37, 2-((3,5-dimethylisoxazol-4-yl)methyl)-9-(quinoxalin-2-yl)-2,9-diazaspiro[5.5]undecan-1-one]"
23%,,,483 nM,"Cc1ccc2[nH]c(N3CCC4(CCCN(Cc5c[nH]c6ccccc56)C4=O)CC3)nc2c1 [Example 163, 2-((1H-indol-3-yl)methyl)-9-(5-methyl-1H-benzo[d]imidazol-2-yl)-2,9-diazaspiro[5.5]undecan-1-one]"
,,1700 nM,320 nM,"Cc1nnc(N2CCC3(CCCN(Cc4c[nH]c5ccccc45)C3=O)CC2)c2ccccc12 [Example 157, 2-((1H-indol-3-yl)methyl)-9-(4-methylphthalazin-1-yl)-2,9-diazaspiro[5.5]undecan-1-one]"
37%,24%,,,"O=C1N(Cc2ccc3nonc3c2)CCCC12CCN(c1cnc3ccccc3n1)CC2 [Example 53, 2-(benzo[c][1,2,5]oxadiazol-5-ylmethyl)-9-(quinoxalin-2-yl)-2,9-diazaspiro[5.5]undecan-1-one]"
15%,32%,,,"O=C1N(Cc2ccc(Cl)nc2)CCCC12CCN(c1cnc3ccccc3n1)CC2 [Example 78, 2-((6-chloropyridin-3-yl)methyl)-9-(quinoxalin-2-yl)-2,9-diazaspiro[5.5]undecan-1-one]"
17%,12%,,,"O=C1N(Cc2ccc(C(F)(F)F)nc2)CCCC12CCN(c1cnc3ccccc3n1)CC2 [Example 90, 9-(quinoxalin-2-yl)-2-((6-(trifluoromethyl)pyridin-3-yl)methyl)-2,9-diazaspiro[5.5]undecan-1-one]"
